Measurements as given in the NIST ThermoML archive (doi:10.1021/acs.jced.7b00944).
± gives the expanded uncertainty stated by the source.

Settings: 298.2 K, 101.33 kPa, Liquid; for viscosity: Falling or rolling sphere viscometry; for mass density: Vibrating tube method

## CCO [ethanol]
  viscosity: 1.04 ± 0.12 mPa·s
  mass density: 786.1 ± 6 kg/m3

## C=C(C)[C@H]1CC=C(C)CC1 [(R)-1-methyl-4-(1-methylethenyl)cyclohexene]
  viscosity: 0.972 ± 0.12 mPa·s
  mass density: 840.73 ± 6 kg/m3

## OCC(O)CO [glycerol]
  viscosity: 873.6 ± 140 mPa·s
  mass density: 1257.7 ± 6.1 kg/m3

## C=CC(C)(O)CCC=C(C)C (stereo not drawn) [3,7-dimethyl-1,6-octadien-3-ol]
  viscosity: 4.238 ± 0.51 mPa·s
  mass density: 856.25 ± 6.1 kg/m3
